Data on 18 compounds can be found in patent publication US20260078099A1, “COMPOUND, PREPARATION METHOD THEREOF, AND LIPID NANOPARTICLE AND PHARMACEUTICAL COMPOSITION” (priority 2023, published 2026).

Data set [1] relates to mice. Nature of the data set: Bioluminescent study, intramuscular injection of F-luc mRNA LNPs. It is filed as in vivo. Conditions: F-luc luminescence flux normalized to MC3; 0.25 mg/kg intramuscular, mice n=3, 6-hour time point. Put shortly: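 Mice (n=3) received LNP-formulated F-luc mRNA at 0.25 mg/kg intramuscularly. Bioluminescence was read 6 h after dosing. Test LNPs were made with an MC3 formulation, and PBS served as control in some groups.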

Data set [2] in a line: LNP zeta potential. To be noted: mRNA LNP. It is filed as physicochemical.
Data set [3] in a line: LNP size and PDI by dynamic light scattering. Type of data set: physicochemical. Conditions: mRNA LNP, cationic lipid/DSPC/cholesterol/PEG-lipid 50:10:38.5:1.5.
A short description of data set [4]: LNP encapsulation efficiency (Quant-it Ribogreen). Type of data set: physicochemical. To be noted: mRNA LNP, cationic lipid/DSPC/cholesterol/PEG-lipid 50:10:38.5:1.5.

Turning to `CCCCCCC(CCCCCC)OC(=O)CCCCCCCCCNC(=O)C(CCCCCCCCCC(=O)OC(CCCCCC)CCCCCC)N(CCCN(CCO)CCO)C(=O)CCCN(C)CCO` (stereo not drawn) [Compound E2], in data set [1], the “Relative Total flux” value was “C (C: ≥0.1 and <1)”. Besides, the “Zeta potential (mV)” value in data set [2] is listed as −9.45 mV. In data set [3], the PDI amounted to 0.143 and the “Size (nm)” value is given as 78.64 nm. The “Encapsulation efficiency (%)” value in data set [4] is 91.65%.

On to `CCCCCCCC(C(=O)NCCCCCCCCCC(=O)OC(CCCCCC)CCCCCC)N(CCCN1CCCC1)C(=O)CCCCCCCCCC(=O)OCC1CC=CCC1` (stereo not drawn) [Compound A9], for which, in data set [1], the “Relative Total flux” value is “D (D: <0.1.)”. Further, the “Zeta potential (mV)” value in data set [2] is −18.67 mV. In data set [3], the PDI is listed as 0.191 and the “Size (nm)” value is listed as 64.58 nm. For the same compound, the “Encapsulation efficiency (%)” value in data set [4] came out at 93.54%.

As to `CCCCCCCCNC(=O)C(CCCCCCCC)N(CCCCN(C)C)C(=O)CCCCCCC(=O)OC(CCCCCCCC)CCCCCCCC` (stereo not drawn) [Compound A35], in data set [1], the “Relative Total flux” value was “A (A: ≥2)”. In addition, in data set [2], the “Zeta potential (mV)” value is −7.81 mV. In addition, in data set [3], the PDI is on record as 0.19 and the “Size (nm)” value is 74.92 nm. Also, the “Encapsulation efficiency (%)” value in data set [4] is listed as 97.34%.

Take `CCCCCCC(CCCCCC)OC(=O)CCCCCCCCCNC(=O)C(CCCCCCCCCC(=O)OC(CCCCCC)CCCCCC)N(CCCN(C)C)C(=O)CCCN(C)C` (stereo not drawn) [Compound E6]: in data set [1], the “Relative Total flux” value was “C (C: ≥0.1 and <1)”. For the same compound, the “Zeta potential (mV)” value in data set [2] was −6.48 mV. Further, in data set [3], the PDI amounted to 0.246 and the “Size (nm)” value was found to be 81.59 nm. Also, the “Encapsulation efficiency (%)” value in data set [4] stood at 96.54%.

Consider `CCCCCCC(CCCCCC)OC(=O)CCCCCCCCCNC(=O)C(CCCCCCCCCC(=O)OC(CCCCCC)CCCCCC)N(CCCN(C)CCO)C(=O)CCCN(C)CCO` (stereo not drawn) [Compound E5], for which the “Relative Total flux” value in data set [1] is “B (B: ≥1 and <2)”. Besides, in data set [2], the “Zeta potential (mV)” value is reported as −19.40 mV. Besides, in data set [3], the PDI is reported as 0.183 and the “Size (nm)” value was 84.36 nm. Further, the “Encapsulation efficiency (%)” value in data set [4] is given as 93.90%.

For the compound `CCCCCCCCNC(=O)CCCCCNC(=O)C(CCCCCCCC)N(CCCN(C)C)C(=O)CCCCCC(=O)NC(CCCCCCC)CCCCCCC` (stereo not drawn) [Compound A31], the “Relative Total flux” value in data set [1] was “B (B: ≥1 and <2)”. Further, in data set [2], the “Zeta potential (mV)” value is on record as −4.31 mV. For the same compound, in data set [3], the PDI is recorded as 0.22 and the “Size (nm)” value worked out at 79.94 nm. For the same compound, the “Encapsulation efficiency (%)” value in data set [4] was 97.50%.

For the compound `CCCCCCCCNC(=O)C(CCCCCCCC)N(CCCN(CCO)CCO)C(=O)CCCCCCC(=O)OC(CCCCCCCC)CCCCCCCC` (stereo not drawn) [Compound B26], in data set [1], the “Relative Total flux” value was “D (D: <0.1.)”. In addition, the “Zeta potential (mV)” value in data set [2] was −1.65 mV. Further, in data set [3], the PDI was determined as 0.22 and the “Size (nm)” value is reported as 105.63 nm. In addition, the “Encapsulation efficiency (%)” value in data set [4] is reported as 92.99%.

As for `CCCCCCCC(C(=O)NCCCCCCCCCC(=O)OC(CCCCCC)CCCCCC)N(CCCN(CCO)C1CCCC1)C(=O)CCCCCCCCCC(=O)OC(CCCCCC)CCCCCC` (stereo not drawn) [Compound B12], the “Relative Total flux” value in data set [1] was “A (A: ≥2)”. In data set [2], the “Zeta potential (mV)” value is listed as −9.02 mV. In data set [3], the PDI is recorded as 0.183 and the “Size (nm)” value was determined as 65.03 nm. In addition, the “Encapsulation efficiency (%)” value in data set [4] amounted to 93.45%.

For the compound `CCCCCCCCC(C(=O)NCCCCCCCCCC(=O)OCCCCCC)N(CCCN(CCO)CCO)C(=O)CCCCCCCCCC(=O)OC(CCCCCC)CCCCCC` (stereo not drawn) [Compound B3], in data set [1], the “Relative Total flux” value is “A (A: ≥2)”. The “Zeta potential (mV)” value in data set [2] is listed as −6.91 mV. Moreover, in data set [3], the PDI worked out at 0.306 and the “Size (nm)” value worked out at 85.75 nm. The “Encapsulation efficiency (%)” value in data set [4] is recorded as 79.83%.

For the compound `CCCCCCCCCCCNC(=O)C(CCCCCCCC)N(CCN(C)CCN(C(=O)CCCCCCCCCC(=O)OC(CCCCCC)CCCCCC)C(CCCCCCCC)C(=O)NCCCCCCCCCC)C(=O)CCCCCCCCCC(=O)OC(CCCCCC)CCCCCC` (stereo not drawn) [Compound D4], the “Relative Total flux” value in data set [1] was “C (C: ≥0.1 and <1)”. For the same compound, the “Zeta potential (mV)” value in data set [2] was −5.91 mV. In addition, in data set [3], the PDI is recorded as 0.163 and the “Size (nm)” value stood at 113.2 nm. Also, in data set [4], the “Encapsulation efficiency (%)” value is 43.24%.

With `CCCCC/C=C\C/C=C\CCCCCCCC(=O)N(CCCN1CCCC1)CC(=O)NCCCCCCCCCCCCCC` [Compound A21], in data set [1], the “Relative Total flux” value is “C (C: ≥0.1 and <1)”. For the same compound, the “Zeta potential (mV)” value in data set [2] is 11.03 mV. In data set [3], the PDI worked out at 0.071 and the “Size (nm)” value is listed as 95.73 nm. In addition, the “Encapsulation efficiency (%)” value in data set [4] amounted to 54.53%.

For `CCCCCCCC(C(=O)NCCCCCCCCCC(=O)OC(CCCCCC)CCCCCC)N(COC(=O)CCN(C)C)C(=O)CCCCCCCCCC(=O)OC(CCCCCC)CCCCCC` (stereo not drawn) [Compound B23], in data set [1], the “Relative Total flux” value is “B (B: ≥1 and <2)”. In data set [2], the “Zeta potential (mV)” value amounted to 12.50 mV. For the same compound, in data set [3], the PDI is 0.214 and the “Size (nm)” value is 68.16 nm. Further, in data set [4], the “Encapsulation efficiency (%)” value was 93.95%.

Regarding `CCCCCCCC(C(=O)NCCCCCCCCCC(=O)OC(CCCCCC)CCCCCC)N(CCCNc1c(NC)c(=O)c1=O)C(=O)CCCCCCCCCC(=O)OC(CCCCCC)CCCCCC` (stereo not drawn) [Compound B22], in data set [1], the “Relative Total flux” value is “B (B: ≥1 and <2)”. Also, the “Zeta potential (mV)” value in data set [2] is −3.48 mV. In data set [3], the PDI is 0.165 and the “Size (nm)” value was found to be 141.8 nm. Besides, in data set [4], the “Encapsulation efficiency (%)” value was found to be 95.03%.

For the compound `CCCCCCCCNC(=O)C(CCCCCCCC)N(CCCN1CCCC1)C(=O)CCCCCCC(=O)OC(CCCCCCCC)CCCCCCCC` (stereo not drawn) [Compound A36], the “Relative Total flux” value in data set [1] is recorded as “A (A: ≥2)”. The “Zeta potential (mV)” value in data set [2] is −1.82 mV. Further, in data set [3], the PDI came out at 0.17 and the “Size (nm)” value came out at 79.52 nm. Further, the “Encapsulation efficiency (%)” value in data set [4] stood at 92.48%.

On to `CCCCCCCCC(C(=O)NCCCCCCCCCC(=O)OCCCCCC)N(CCCN(C)C)C(=O)CCCCCCCCCC(=O)OCCCCCC` (stereo not drawn) [Compound A16], for which, in data set [1], the “Relative Total flux” value is “C (C: ≥0.1 and <1)”. In addition, the “Zeta potential (mV)” value in data set [2] was determined as 0.78 mV. For the same compound, in data set [3], the PDI came to 0.183 and the “Size (nm)” value is recorded as 78.42 nm. Besides, in data set [4], the “Encapsulation efficiency (%)” value is 41.55%.

For `CCCCCCC(CCCCCC)OC(=O)CCCCCCCCCNC(=O)C(CCCCCCCCCC(=O)OC(CCCCCC)CCCCCC)N(CCN1CCN(CCO)CC1)C(=O)CCN1CCN(CCO)CC1` (stereo not drawn) [Compound E10], the “Relative Total flux” value in data set [1] is “C (C: ≥0.1 and <1)”. For the same compound, the “Zeta potential (mV)” value in data set [2] is on record as −16.71 mV. In addition, in data set [3], the PDI turned out to be 0.185 and the “Size (nm)” value is listed as 104.5 nm. Besides, the “Encapsulation efficiency (%)” value in data set [4] turned out to be 69.71%.

Consider `CCCCCCCCNC(=O)C(CCCCCCCC)N(CCCN(C)CCO)C(=O)CCCCCCC(=O)OC(CCCCCCCC)CCCCCCCC` (stereo not drawn) [Compound B30], for which the “Relative Total flux” value in data set [1] is “A (A: ≥2)”. Besides, the “Zeta potential (mV)” value in data set [2] is given as 3.81 mV. Besides, in data set [3], the PDI is 0.08 and the “Size (nm)” value is on record as 64.27 nm. In addition, the “Encapsulation efficiency (%)” value in data set [4] came to 93.97%.

On to `CCCCCCCC(C(=O)NCCCCCCCCCC(=O)OC(CCCCCC)CCCCCC)N(CCCN(C)C)C(=O)CCCCCCCCCC(=O)OCC12CC3CC(CC(C3)C1)C2` (stereo not drawn) [Compound A17], for which the “Relative Total flux” value in data set [1] is reported as “D (D: <0.1.)”. In addition, the “Zeta potential (mV)” value in data set [2] is listed as −0.68 mV. Besides, in data set [3], the PDI was 0.07 and the “Size (nm)” value came to 60.77 nm. Also, the “Encapsulation efficiency (%)” value in data set [4] stood at 53.24%.
